The supplement of paper PMC10307832

Assays:
Experiment in all cases: relative viability (nuclei count vs DMSO), 5 days (fraction); higher = more cells survive
Neratinib = compound: CCOc1cc2ncc(C#N)c(Nc3ccc(OCc4ccccn4)c(Cl)c3)c2cc1NC(=O)/C=C/CN(C)C [Neratinib]
Method in brief: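 For viability, nuclei in each treated well were divided by nuclei in vehicle wells and the median across plates was taken. Lung cancer cell lines in 1536-well plates were pinned with five library-drug doses (not always all listed) spaced by √10, cultured 5 days without medium change, and imaged at 4× after Hoechst staining, with plates passing only at control CV below 25% and at least one doubling.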

Neratinib + Trametinib = compound: CCOc1cc2ncc(C#N)c(Nc3ccc(OCc4ccccn4)c(Cl)c3)c2cc1NC(=O)/C=C/CN(C)C [Neratinib] + CC(=O)Nc1cccc(-n2c(=O)n(C3CC3)c(=O)c3c(Nc4ccc(I)cc4F)n(C)c(=O)c(C)c32)c1 [Trametinib] (partner 0.02 µM)
Method in brief: (§1)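 One day after seeding in 1536-well plates, lung cancer cell lines were dosed by pin tool. Dosing was either single-drug or a fixed anchor-drug dose plus five library-drug doses (not always all listed) in √10 steps. After 5 days, nuclei were stained in one fix-and-stain step and counted on 4× images, and relative viability is the nuclei count of treated wells over that of vehicle wells, given as the median of duplicate plates.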

Neratinib + Palbociclib = compound: CCOc1cc2ncc(C#N)c(Nc3ccc(OCc4ccccn4)c(Cl)c3)c2cc1NC(=O)/C=C/CN(C)C [Neratinib] + CC(=O)c1c(C)c2cnc(Nc3ccc(N4CCNCC4)cn3)nc2n(C2CCCC2)c1=O [Palbociclib] (partner 0.5 µM)
Method in brief: as §1

Neratinib + Luminespib = compound: CCOc1cc2ncc(C#N)c(Nc3ccc(OCc4ccccn4)c(Cl)c3)c2cc1NC(=O)/C=C/CN(C)C [Neratinib] + CCNC(=O)c1noc(-c2cc(C(C)C)c(O)cc2O)c1-c1ccc(CN2CCOCC2)cc1 [Luminespib] (partner 0.01 µM)
Method in brief: as §1

Neratinib + OSI-027 = compound: CCOc1cc2ncc(C#N)c(Nc3ccc(OCc4ccccn4)c(Cl)c3)c2cc1NC(=O)/C=C/CN(C)C [Neratinib] + COc1cccc2cc(-c3nc([C@H]4CC[C@H](C(=O)O)CC4)n4ncnc(N)c34)[nH]c12 [OSI-027] (partner 0.5 µM)
Method in brief: as §1

Neratinib + Tozasertib = compound: CCOc1cc2ncc(C#N)c(Nc3ccc(OCc4ccccn4)c(Cl)c3)c2cc1NC(=O)/C=C/CN(C)C [Neratinib] + Cc1cc(Nc2cc(N3CCN(C)CC3)nc(Sc3ccc(NC(=O)C4CC4)cc3)n2)n[nH]1 [Tozasertib] (partner 0.1 µM)
Method in brief: as §1

Neratinib + Dasatinib = compound: CCOc1cc2ncc(C#N)c(Nc3ccc(OCc4ccccn4)c(Cl)c3)c2cc1NC(=O)/C=C/CN(C)C [Neratinib] + Cc1nc(Nc2ncc(C(=O)Nc3c(C)cccc3Cl)s2)cc(N2CCN(CCO)CC2)n1 [Dasatinib] (partner 0.075 µM)
Method in brief: as §1

Neratinib + Phenformin = compound: CCOc1cc2ncc(C#N)c(Nc3ccc(OCc4ccccn4)c(Cl)c3)c2cc1NC(=O)/C=C/CN(C)C [Neratinib] + N=C(N)NC(=N)NCCc1ccccc1 [Phenformin] (partner 250 µM)
Method in brief: as §1

Neratinib + AZD7762 = compound: CCOc1cc2ncc(C#N)c(Nc3ccc(OCc4ccccn4)c(Cl)c3)c2cc1NC(=O)/C=C/CN(C)C [Neratinib] + NC(=O)Nc1cc(-c2cccc(F)c2)sc1C(=O)N[C@H]1CCCNC1 [AZD7762] (partner 0.2 µM)
Method in brief: as §1

Neratinib + Pemetrexed = compound: CCOc1cc2ncc(C#N)c(Nc3ccc(OCc4ccccn4)c(Cl)c3)c2cc1NC(=O)/C=C/CN(C)C [Neratinib] + Nc1nc2[nH]cc(CCc3ccc(C(=O)N[C@@H](CCC(=O)O)C(=O)O)cc3)c2c(=O)[nH]1 [Pemetrexed] (partner 0.2 µM)
Method in brief: as §1

Neratinib + Decitabine = compound: CCOc1cc2ncc(C#N)c(Nc3ccc(OCc4ccccn4)c(Cl)c3)c2cc1NC(=O)/C=C/CN(C)C [Neratinib] + Nc1ncn([C@H]2C[C@H](O)[C@@H](CO)O2)c(=O)n1 [Decitabine] (partner 2 µM)
Method in brief: as §1

Neratinib + Vorinostat = compound: CCOc1cc2ncc(C#N)c(Nc3ccc(OCc4ccccn4)c(Cl)c3)c2cc1NC(=O)/C=C/CN(C)C [Neratinib] + O=C(CCCCCCC(=O)Nc1ccccc1)NO [Vorinostat] (partner 1 µM)
Method in brief: as §1

Neratinib + Olaparib = compound: CCOc1cc2ncc(C#N)c(Nc3ccc(OCc4ccccn4)c(Cl)c3)c2cc1NC(=O)/C=C/CN(C)C [Neratinib] + O=C(c1cc(Cc2n[nH]c(=O)c3ccccc23)ccc1F)N1CCN(C(=O)C2CC2)CC1 [Olaparib] (partner 8 µM)
Method in brief: as §1

Neratinib + Foretinib = compound: CCOc1cc2ncc(C#N)c(Nc3ccc(OCc4ccccn4)c(Cl)c3)c2cc1NC(=O)/C=C/CN(C)C [Neratinib] + COc1cc2c(Oc3ccc(NC(=O)C4(C(=O)Nc5ccc(F)cc5)CC4)cc3F)ccnc2cc1OCCCN1CCOCC1 [Foretinib] (partner 0.25 µM)
Method in brief: as §1

NCI-H522 showed a relative viability (Neratinib; 0.01 µM) of 0.982, a relative viability (Neratinib; 0.1 µM) of 0.876 and a relative viability (Neratinib; 0.3162 µM) of 0.692. The relative viability (Neratinib; 1 µM) was 0.59, the relative viability (Neratinib + Trametinib; first compound 0.01 µM) was 0.756 and the relative viability (Neratinib + Trametinib; first compound 0.03162 µM) was 0.923. The relative viability (Neratinib + Trametinib; first compound 0.1 µM) was 0.758, the relative viability (Neratinib + Trametinib; first compound 0.3162 µM) was 0.599 and the relative viability (Neratinib + Trametinib; first compound 1 µM) was 0.543. It also gave a relative viability (Neratinib + Palbociclib; first compound 0.01 µM) of 1.22, a relative viability (Neratinib + Palbociclib; first compound 0.03162 µM) of 0.759 and a relative viability (Neratinib + Palbociclib; first compound 0.1 µM) of 0.719. For the same cell line, the relative viability (Neratinib + Palbociclib; first compound 0.3162 µM) was 0.733, the relative viability (Neratinib + Palbociclib; first compound 1 µM) was 0.538 and the relative viability (Neratinib + Luminespib; first compound 0.01 µM) was 1.12. For the same cell line, the relative viability (Neratinib + Luminespib; first compound 0.03162 µM) was 1.12, the relative viability (Neratinib + Luminespib; first compound 0.1 µM) was 1.09 and the relative viability (Neratinib + Luminespib; first compound 0.3162 µM) was 0.913. It also gave a relative viability (Neratinib + Luminespib; first compound 1 µM) of 0.655, a relative viability (Neratinib + OSI-027; first compound 0.01 µM) of 0.687 and a relative viability (Neratinib + OSI-027; first compound 0.03162 µM) of 0.702. It also gave a relative viability (Neratinib + OSI-027; first compound 0.1 µM) of 0.605, a relative viability (Neratinib + OSI-027; first compound 0.3162 µM) of 0.548 and a relative viability (Neratinib + OSI-027; first compound 1 µM) of 0.497. It also gave a relative viability (Neratinib + Tozasertib; first compound 0.01 µM) of 0.573, a relative viability (Neratinib + Tozasertib; first compound 0.03162 µM) of 0.608 and a relative viability (Neratinib + Tozasertib; first compound 0.1 µM) of 0.571. The relative viability (Neratinib + Tozasertib; first compound 0.3162 µM) was 0.46, the relative viability (Neratinib + Tozasertib; first compound 1 µM) was 0.499 and the relative viability (Neratinib + Dasatinib; first compound 0.01 µM) was 0.94. The relative viability (Neratinib + Dasatinib; first compound 0.03162 µM) was 0.809, the relative viability (Neratinib + Dasatinib; first compound 0.1 µM) was 0.818 and the relative viability (Neratinib + Dasatinib; first compound 0.3162 µM) was 0.786. The relative viability (Neratinib + Dasatinib; first compound 1 µM) was 0.664, the relative viability (Neratinib + Phenformin; first compound 0.01 µM) was 0.747 and the relative viability (Neratinib + Phenformin; first compound 0.03162 µM) was 0.619. The relative viability (Neratinib + Phenformin; first compound 0.1 µM) was 0.663, the relative viability (Neratinib + Phenformin; first compound 0.3162 µM) was 0.548 and the relative viability (Neratinib + Phenformin; first compound 1 µM) was 0.604. The relative viability (Neratinib + AZD7762; first compound 0.01 µM) was 0.781, the relative viability (Neratinib + AZD7762; first compound 0.03162 µM) was 0.844 and the relative viability (Neratinib + AZD7762; first compound 0.1 µM) was 0.878. It also gave a relative viability (Neratinib + AZD7762; first compound 0.3162 µM) of 0.804, a relative viability (Neratinib + AZD7762; first compound 1 µM) of 0.718 and a relative viability (Neratinib + Pemetrexed; first compound 0.01 µM) of 1. It also gave a relative viability (Neratinib + Pemetrexed; first compound 0.03162 µM) of 0.943, a relative viability (Neratinib + Pemetrexed; first compound 0.1 µM) of 0.72 and a relative viability (Neratinib + Pemetrexed; first compound 0.3162 µM) of 0.673. The relative viability (Neratinib + Pemetrexed; first compound 1 µM) was 0.657, the relative viability (Neratinib + Decitabine; first compound 0.01 µM) was 0.719 and the relative viability (Neratinib + Decitabine; first compound 0.03162 µM) was 0.671. It also gave a relative viability (Neratinib + Decitabine; first compound 0.1 µM) of 0.711, a relative viability (Neratinib + Decitabine; first compound 0.3162 µM) of 0.557 and a relative viability (Neratinib + Decitabine; first compound 1 µM) of 0.573. It also gave a relative viability (Neratinib + Vorinostat; first compound 0.01 µM) of 1.04, a relative viability (Neratinib + Vorinostat; first compound 0.03162 µM) of 1.01 and a relative viability (Neratinib + Vorinostat; first compound 0.1 µM) of 0.678. For the same cell line, the relative viability (Neratinib + Vorinostat; first compound 0.3162 µM) was 0.718, the relative viability (Neratinib + Vorinostat; first compound 1 µM) was 0.626 and the relative viability (Neratinib + Olaparib; first compound 0.01 µM) was 0.598. For the same cell line, the relative viability (Neratinib + Olaparib; first compound 0.03162 µM) was 0.5, the relative viability (Neratinib + Olaparib; first compound 0.1 µM) was 0.558 and the relative viability (Neratinib + Olaparib; first compound 0.3162 µM) was 0.573. It also gave a relative viability (Neratinib + Olaparib; first compound 1 µM) of 0.459.

In the case of NCI-H1623, the relative viability (Neratinib; 0.03162 µM) is reported as 0.903, the relative viability (Neratinib; 0.1 µM) is reported as 0.755 and the relative viability (Neratinib; 0.3162 µM) is reported as 0.333. It also gave a relative viability (Neratinib; 1 µM) of 0.271, a relative viability (Neratinib + Luminespib; first compound 0.01 µM) of 0.663 and a relative viability (Neratinib + Luminespib; first compound 0.03162 µM) of 0.566. The relative viability (Neratinib + Luminespib; first compound 0.1 µM) was 0.401, the relative viability (Neratinib + Luminespib; first compound 0.3162 µM) was 0.355 and the relative viability (Neratinib + Luminespib; first compound 1 µM) was 0.341. The relative viability (Neratinib + Foretinib; first compound 0.01 µM) was 0.822, the relative viability (Neratinib + Foretinib; first compound 0.03162 µM) was 0.856 and the relative viability (Neratinib + Foretinib; first compound 0.1 µM) was 0.621. For the same cell line, the relative viability (Neratinib + Foretinib; first compound 0.3162 µM) was 0.31, the relative viability (Neratinib + Foretinib; first compound 1 µM) was 0.241 and the relative viability (Neratinib + OSI-027; first compound 0.01 µM) was 0.496. For the same cell line, the relative viability (Neratinib + OSI-027; first compound 0.03162 µM) was 0.376, the relative viability (Neratinib + OSI-027; first compound 0.1 µM) was 0.365 and the relative viability (Neratinib + OSI-027; first compound 0.3162 µM) was 0.213. The relative viability (Neratinib + OSI-027; first compound 1 µM) was 0.261, the relative viability (Neratinib + Tozasertib; first compound 0.01 µM) was 0.477 and the relative viability (Neratinib + Tozasertib; first compound 0.03162 µM) was 0.424. The relative viability (Neratinib + Tozasertib; first compound 0.3162 µM) was 0.224, the relative viability (Neratinib + Tozasertib; first compound 1 µM) was 0.229 and the relative viability (Neratinib + Dasatinib; first compound 0.01 µM) was 0.578. It also gave a relative viability (Neratinib + Dasatinib; first compound 0.03162 µM) of 0.538, a relative viability (Neratinib + Dasatinib; first compound 0.1 µM) of 0.464 and a relative viability (Neratinib + Dasatinib; first compound 0.3162 µM) of 0.432. It also gave a relative viability (Neratinib + Dasatinib; first compound 1 µM) of 0.26, a relative viability (Neratinib + Phenformin; first compound 0.01 µM) of 0.598 and a relative viability (Neratinib + Phenformin; first compound 0.03162 µM) of 0.589. For the same cell line, the relative viability (Neratinib + Phenformin; first compound 0.1 µM) was 0.509, the relative viability (Neratinib + Phenformin; first compound 0.3162 µM) was 0.337 and the relative viability (Neratinib + Phenformin; first compound 1 µM) was 0.236.
